Source: ChEMBL document CHEMBL1201862, “PubChem BioAssay data set” (2004)
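Method: 48-hour compound exposure of cells in 96-well plates, five concentrations, linear interpolation of endpoints. Abbreviation: GI50, concentration required for 50% inhibition of growth.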 The source made the active and inactive calls. Cut-off read from the data, not from the text of the source: active = GI50 up to about 1.1 µM and inactive = higher.

Legend:
Test in all cases: growth of human tumour cells (NCI), 48 h
[1] = tested on: NCI-H522
[2] = tested on: OVCAR-3
[3] = tested on: ACHN
[4] = tested on: 786-0
[5] = tested on: SK-MEL-5
[6] = tested on: SF-268
[7] = tested on: HL-60
[8] = tested on: NCI-H226
[9] = tested on: IGROV-1
[10] = tested on: NCI/ADR-RES
[11] = tested on: SW-620
[12] = tested on: TK-10
[13] = tested on: MDA-MB-435
[14] = tested on: RXF 393
[15] = tested on: SF-295
[16] = tested on: KM12
[17] = tested on: MDA-MB-231
[18] = tested on: SK-MEL-2
[19] = tested on: HCT-15
[20] = tested on: U-251
[21] = tested on: HOP-92
[22] = tested on: HOP-62
[23] = tested on: Hs-578T
[24] = tested on: UACC-257
[25] = tested on: COLO 205
[26] = tested on: OVCAR-5
[27] = tested on: Malme-3M
[28] = tested on: A549
[29] = tested on: SK-OV-3
[30] = tested on: LOX IMVI
[31] = tested on: MDA-N
[32] = tested on: SN12C
[33] = tested on: HT-29
[34] = tested on: UACC-62
[35] = tested on: HCT-116
[36] = tested on: OVCAR-4
[37] = tested on: RPMI-8226
[38] = tested on: EKVX
[39] = tested on: MOLT-4
[40] = tested on: SR
[41] = tested on: DU-145
[42] = tested on: SF-539
[43] = tested on: SNB-19
[44] = tested on: NCI-H23
[45] = tested on: CAKI-1
[46] = tested on: BT-549
[47] = tested on: MCF7
[48] = tested on: M14
[49] = tested on: CCRF-CEM
[50] = tested on: NCI-H460
[51] = tested on: PC-3
[52] = tested on: K562
[53] = tested on: OVCAR-8
[54] = tested on: UO-31
[55] = tested on: T47D

Measured: GI50

Cc1ccc(O)c(C2=NNC(c3cccc(Cl)c3)C2)c1 (stereo not given)
8.09 µM: [19]
inactive: [1] 16 µM | [2] 51.5 µM | [3] 30.1 µM | [4] 72.8 µM | [5] 54 µM | [6] 32.9 µM | [7] 41.7 µM | [8] 57.1 µM | [9] 5.69 µM | [10] 34.5 µM | [11] 48 µM | [12] 58.3 µM | [13] 19 µM | [14] 19.4 µM | [15] 66.4 µM | [16] 20.6 µM | [17] 61.5 µM | [18] 30 µM | [20] 33.9 µM | [21] 18.5 µM | [22] 79.8 µM | [23] 30.5 µM | [24] 35 µM | [25] > 100 µM | [26] > 100 µM | [27] 37.8 µM | [28] 34.8 µM | [29] 35.9 µM | [30] 31.6 µM | [31] 28.3 µM | [32] 37.2 µM | [33] 54.8 µM | [34] 39.7 µM | [35] 34 µM | [36] 24.4 µM | [37] 25.1 µM | [38] 37 µM | [39] 34 µM | [40] 28.9 µM | [41] 86.1 µM | [42] 66.5 µM | [43] 14.4 µM | [44] 50.1 µM | [45] 36.8 µM | [46] > 100 µM | [47] 23.2 µM | [48] 87.5 µM | [49] 31.8 µM | [50] 19.6 µM | [51] 32.3 µM | [52] 36.4 µM | [53] 56.2 µM | [54] 28.1 µM | [55] 41.4 µM
